Earlier results on one molecule are cited in patent publication US11427542B2, “Compounds for treatment of cardiac arrhythmias and heart failure” (Elex Biotech, Inc., priority 2018, dated 2022).

For the series, the system named is R176Q/+ mice. Conditions: cardiac pacing, versus placebo-treated.

For the molecule `CCCCNc1ccc(C(=O)OCCN(CC)CC)c(OC)c1` [Compound 1], the “arrhythmic development (bidirectional VT / sustained polymorphic VT) following pacing” value is recorded as “protected from arrhythmic development following pacing”.
